Measurements published in ChEMBL document CHEMBL4118220, “Design, synthesis and biological evaluation of phosphopeptides as Polo-like kinase 1 Polo-box domain inhibitors” (Bioorg Med Chem, 2018).
pIC50: −log10 of the molar value. Square brackets hold non-standard residues; d marks the D form. Peptide text beside a SMILES is read from it. Phe(4-NO2) = N[C@@H](Cc1ccc([N+](=O)[O-])cc1)C(=O)O; Phe(3,4-Cl2) = N[C@@H](Cc1ccc(Cl)c(Cl)c1)C(=O)O; Phe(4-F) = N[C@@H](Cc1ccc(F)cc1)C(=O)O; pT = C[C@@H](OP(=O)(O)O)[C@H](N)C(=O)O

Tests used:
[1] = target: Serine/threonine-protein kinase PLK3 (Homo sapiens, UniProt Q9H4B4); assay: Inhibition of FITC-GPLATSpTPKNG-OH binding to Plk3 PBD (unknown origin) after 30 mins by fluorescence polarization assay
[2] = target: Serine/threonine-protein kinase PLK2 (Homo sapiens, UniProt Q9NYY3); assay: Inhibition of FITC-GPMQTSpTPKNG-OH binding to Plk2 PBD (unknown origin) after 30 mins by fluorescence polarization assay
Sequence of Serine/threonine-protein kinase PLK2 (Q9NYY3 whole entry): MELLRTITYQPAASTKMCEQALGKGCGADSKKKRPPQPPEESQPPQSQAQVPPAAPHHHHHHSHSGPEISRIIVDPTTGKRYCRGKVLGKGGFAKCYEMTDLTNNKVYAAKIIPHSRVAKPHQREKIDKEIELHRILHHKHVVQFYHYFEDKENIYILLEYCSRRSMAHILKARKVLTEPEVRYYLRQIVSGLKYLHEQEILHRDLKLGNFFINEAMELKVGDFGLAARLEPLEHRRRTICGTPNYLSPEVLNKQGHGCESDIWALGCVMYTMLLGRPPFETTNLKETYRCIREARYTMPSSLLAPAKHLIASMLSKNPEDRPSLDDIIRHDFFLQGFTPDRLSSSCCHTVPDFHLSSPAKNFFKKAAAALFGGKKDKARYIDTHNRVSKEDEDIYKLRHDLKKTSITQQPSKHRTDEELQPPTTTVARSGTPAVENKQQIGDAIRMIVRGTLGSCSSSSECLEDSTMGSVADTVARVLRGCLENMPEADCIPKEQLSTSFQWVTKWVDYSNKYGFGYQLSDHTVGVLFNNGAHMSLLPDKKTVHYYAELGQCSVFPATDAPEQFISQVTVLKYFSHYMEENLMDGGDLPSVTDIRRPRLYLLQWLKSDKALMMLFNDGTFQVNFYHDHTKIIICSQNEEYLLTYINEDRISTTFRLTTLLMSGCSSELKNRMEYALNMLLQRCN

Sequence of Serine/threonine-protein kinase PLK3 (Q9H4B4 whole entry): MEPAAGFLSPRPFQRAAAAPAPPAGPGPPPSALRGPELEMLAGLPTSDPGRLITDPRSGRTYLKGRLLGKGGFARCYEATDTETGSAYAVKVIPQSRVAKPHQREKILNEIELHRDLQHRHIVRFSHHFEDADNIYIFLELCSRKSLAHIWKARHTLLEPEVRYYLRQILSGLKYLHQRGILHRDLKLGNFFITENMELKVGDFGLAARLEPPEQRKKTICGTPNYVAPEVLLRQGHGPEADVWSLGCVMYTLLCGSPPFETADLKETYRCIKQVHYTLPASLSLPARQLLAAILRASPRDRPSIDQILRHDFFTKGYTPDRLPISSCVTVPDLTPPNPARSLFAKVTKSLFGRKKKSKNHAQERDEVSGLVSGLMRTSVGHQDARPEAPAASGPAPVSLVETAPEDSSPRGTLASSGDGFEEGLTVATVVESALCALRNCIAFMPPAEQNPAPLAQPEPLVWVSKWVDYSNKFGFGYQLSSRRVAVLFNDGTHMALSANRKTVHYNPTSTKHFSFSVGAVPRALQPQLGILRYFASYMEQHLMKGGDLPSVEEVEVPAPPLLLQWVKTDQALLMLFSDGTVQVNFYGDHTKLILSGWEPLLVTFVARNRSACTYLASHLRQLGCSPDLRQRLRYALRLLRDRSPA

CC[C@H](C)[C@H](NC(=O)[C@H](C)NC(=O)[C@@H](NC(=O)[C@H](CO)NC(=O)[C@H](Cc1cnc[nH]1)NC(=O)[C@H](CC(C)C)NC(=O)[C@@H]1CCCN1C(=O)[C@@H]1CCCN1C(=O)[C@H](CC(=O)O)NC(=O)[C@H](Cc1ccc(F)cc1)NC(=O)[C@@H](NC(=O)[C@H](CCC(N)=O)NC(C)=O)[C@@H](C)O)[C@@H](C)OP(=O)(O)O)C(=O)N[C@@H](Cc1ccc(O)cc1)C(=O)N[C@@H](C)C(=O)N[C@@H](CC(N)=O)C(N)=O (Ac-QT[Phe(4-F)]DPPLHS[pT]AIYAN-NH2)
IC50 [1]: Not Active | IC50 [2]: Not Active

CC[C@H](C)[C@H](NC(=O)[C@H](C)NC(=O)[C@@H](NC(=O)[C@H](CO)NC(=O)[C@H](Cc1cnc[nH]1)NC(=O)[C@H](CC(C)C)NC(=O)[C@@H]1CCCN1C(=O)[C@@H]1CCCN1C(=O)[C@H](CC(=O)O)NC(=O)[C@H](Cc1ccc([N+](=O)[O-])cc1)NC(=O)[C@@H](NC(=O)[C@H](CCC(N)=O)NC(C)=O)[C@@H](C)O)[C@@H](C)OP(=O)(O)O)C(=O)N[C@@H](Cc1ccc(O)cc1)C(=O)N[C@@H](C)C(=O)N[C@@H](CC(N)=O)C(N)=O (Ac-QT[Phe(4-NO2)]DPPLHS[pT]AIYAN-NH2)
IC50 [1]: Not Active | IC50 [2]: Not Active

CC[C@H](C)[C@H](NC(=O)[C@H](C)NC(=O)[C@@H](NC(=O)[C@H](CO)NC(=O)[C@H](Cc1cnc[nH]1)NC(=O)[C@H](CC(C)C)NC(=O)[C@@H]1CCCN1C(=O)[C@@H]1CCCN1C(=O)[C@H](CC(=O)O)NC(=O)[C@H](Cc1ccc(Cl)c(Cl)c1)NC(=O)[C@H](CCC(N)=O)NC(C)=O)[C@@H](C)O)C(=O)N[C@@H](Cc1ccc(O)cc1)C(=O)N[C@@H](C)C(=O)N[C@@H](CC(N)=O)C(N)=O (Ac-Q[Phe(3,4-Cl2)]DPPLHSTAIYAN-NH2)
IC50 [1]: Not Active | IC50 [2]: Not Active

CC[C@H](C)[C@H](NC(=O)[C@H](C)NC(=O)[C@@H](NC(=O)[C@H](CO)NC(=O)[C@H](Cc1cnc[nH]1)NC(=O)[C@H](CC(C)C)NC(=O)[C@@H]1CCCN1C(=O)[C@@H]1CCCN1C(=O)[C@H](CC(=O)O)NC(=O)[C@H](Cc1ccc(Cl)c(Cl)c1)NC(=O)[C@@H](NC(C)=O)[C@@H](C)O)[C@@H](C)OP(=O)(O)O)C(=O)N[C@@H](Cc1ccc(O)cc1)C(=O)N[C@@H](C)C(=O)N[C@@H](CC(N)=O)C(N)=O (Ac-T[Phe(3,4-Cl2)]DPPLHS[pT]AIYAN-NH2)
IC50 [1]: Not Active | IC50 [2]: Not Active

CC[C@H](C)[C@H](NC(=O)[C@H](C)NC(=O)[C@@H](NC(=O)[C@H](CO)NC(=O)[C@H](Cc1cnc[nH]1)NC(=O)[C@H](CC(C)C)NC(=O)[C@@H]1CCCN1C(=O)[C@@H]1CCCN1C(=O)[C@H](CC(=O)O)NC(=O)[C@H](Cc1ccc(Cl)c(Cl)c1)NC(C)=O)[C@@H](C)OP(=O)(O)O)C(=O)N[C@@H](Cc1ccc(O)cc1)C(=O)N[C@@H](C)C(=O)N[C@@H](CC(N)=O)C(N)=O (Ac-[Phe(3,4-Cl2)]DPPLHS[pT]AIYAN-NH2)
IC50 [1]: Not Active | pIC50 ([2]; read-out: IC50): 6.15
